Patent US10392363B2, “Methods for treating protozoan infections” (Neoculi Pty Ltd., priority 2014, dated 2019)

Tests used:
[1] = test system: Mouse macrophages (RAW 264.7); experiment: Cell toxicity assay (WST-1); type: cell-based; conditions: RAW 264.7, 24 hours, read-out: GI50 macrophage
Experimental: (§1) Cell toxicity assays. Mouse macrophages (RAW 264.7) were grown in RPM11640 media supplemented with L-glutamine and 10% foetal calf serum. Cells were trypsanised when 80% confluent and subcultured every 3-4 days. For cytotoxicity assays cells were diluted to a final cell concentration of 2×10^4 cells/ml and 198 μl added to each well of a 96 well plate. Cells were incubated in a humidified incubator for 2 hours at 37° C. 5% CO2 before the addition of NCL compounds (2 μl/well, previously diluted in DMSO). Campothecin, triton X and DMSO only were used as controls. Cells were exposed to the compounds for 24 hours. The metabolic activity of the cells was determined using the WST-1 assay system (Roche Life Science). The supernatant was removed, 100 μl of PBS with 10% WST-1 was added to each well and incubated for 1 hr before reading absorbance at 450 nm. The selectivity index of the compounds was determined by dividing the IC50 of macrophages by the IC50 against parasites. IC50 was determined via graphpad prism software.

[2] = test system: Leishmania donovani promastigotes; experiment: L. donovani screening (Alamarblue); type: cell-based; conditions: for IC50: 72 hours; for L. donovani SI: GI50 of macrophages divided by IC50 of parasites
Experimental: L. donovani Screening. Procyclic promastigotes from exponentially growing cultures maintained in DME-L+ Bob additions were used for all assays. Compounds were initially screened for activity at 10 μM. Compounds were diluted in culture media to a […] in 96 well plates. Promastigotes were diluted to a density of ˜8×10^5 cells/ml then added to the assay plate resulting in a final cell density of 4×10^5 cells/ml. in 96 well plates. Cells were incubated for 96 hrs at 27° C. before the addition of Alamarblue (thermofisher). Fluorescence was read at excitation 530 nm and Emission 590 nm. […] Compounds were serially diluted in thirds, in a 96 well plate, in cell growth media so that concentrations ranged from 0.005 to 10 μM and promastigotes added to a final concentration of 1×10^6 cells/ml. Cells were incubated at 27° C. for 72 hours before the addition of alamar blue. Fluorescence was measured as above.

[3] = test system: T. brucei procyclic stage; experiment: T. brucei screening (alamar blue); type: cell-based, Trypanosoma brucei; conditions: for T. brucei SI: GI50 of macrophages divided by IC50 of parasites
Experimental: T. brucei screening. Procyclic promastigotes from exponentially growing cells maintained SDM-79 medium were used in all assays. Compounds were initially screened at 10 μM for activity. Compounds were diluted in culture media to a concentration of 20 μM and added to a 96 well plate, after addition of promastigotes (final concentration 4×10^5 cells/ml) compound concentration was 10 μM. Cells were incubated for 48 hrs at 27° C. before the addition of alamar blue and fluorescence measurement as described above. […] Compounds were serially diluted in thirds in culture media resulting in final concentrations ranging from 0.004-10 μM. Promastigotes were added at a final concentration of 4×10^5 cells/ml. Cells were incubated at 27° C. for 48 hours before addition of alamar blue. In addition promastigotes, at a concentration of 8×10^5 were exposed to NCL026 for 1.5 hours before removal of the drug via centrifugation at 5000 rpm for 7 minutes and resuspension of cells in culture media. Cells were incubated for 96 hours at 27° C. and observed daily for metabolic activity (alamar blue assay) and morphological changes. A control culture was exposed to DMSO instead of NCL026.

[4] = test system: Trypanosoma cruzi (Tulahuen trypomastigotes expressing β-galactosidase, in L6 cells); experiment: In vitro T. cruzi assay for determination of IC50; type: cell-based; conditions: 96 h incubation
Experimental: The T. cruzi assay uses Tulahuen trypomastigotes expressing the β-galactosidase gene. The parasites were maintained in vitro by serial passage in L6 cells. […] Extracellular trypomastigotes were then removed and NCL compounds were added in seven-point serial dilutions performed in triplicate. Benznidazole (Epichem Pty Ltd.) was included as a control. […] After 4-6 h, a colour change following catabolisation of the reagent by viable T. cruzi was observed and absorbance was read at 530 nm using a Dynex microplate reader. […] For each compound, % inhibition values were used to generate a standard curve from which the IC50 was calculated. Each assay was performed at least twice, and the average was used.

[5] = Exposure in male Swiss outbred mice following IV administration; type: in vivo; conditions: IV 5 mg/kg; for Apparent t1/2: plasma, value marked b is an approximation; for AUC0-inf / Plasma CL / Plasma Vss: values marked a, b are approximations
Experimental: The systemic exposures of NCL026, NCL195, NCL259 and NCL812 were studied in nonfasted male Swiss outbred mice weighing 26.2-32.1 g. Mice had access to food and water ad libitum throughout the pre- and post-dose sampling period. Each compound was administered IV via a bolus injection into the tail vein (vehicle 20% (v/v) DMSO in PEG400, 1 mL/kg dose volume, n=8 mice per compound). […] A maximum of two samples were obtained from each mouse, with samples being taken either via submandibular bleed (approximately 120 μL; conscious sampling) or terminal cardiac puncture (0.6 mL; while mice were anaesthetised using inhaled Isoflurane). No urine samples were collected as mice were housed in bedded cages during the study. Blood was collected directly into polypropylene Eppendorf tubes containing heparin as anticoagulant, and stabilisation cocktail (containing Complete® (a protease inhibitor cocktail with EDTA) and potassium fluoride) to minimise the potential for ex vivo degradation of the test compounds in blood/plasma samples. Once collected, blood samples were centrifuged immediately, supernatant plasma was removed, and stored at −80° C. until analysis by LC-MS using methods standard in the art. Each compound was administered in a vehicle composed of 20% (v/v) DMSO in PEG400. Formulations were prepared by dissolving the compounds in DMSO prior to addition of PEG400. Formulations were not filtered prior to dosing and were administered to mice within 2.5 h of preparation. […] The dose administered to each mouse was calculated on the basis of the measured concentration in the IV formulation, the dose volume and individual mouse body weight. Plasma concentration versus time data were analysed using non-compartmental methods (WinNonlin Version 6.3.0.395). Standard calculations for each pharmacokinetic parameter were calculated using standard methods in the art.

[6] = Cell toxicity assay (WST-1); type: cell-based, mouse; conditions: mouse, RAW 264.7 macrophages, RAW 264.7, 24 hours, read-out: GI50 macrophage
Experimental: as §1

[7] = Exposure of NCL195 in male Swiss outbred mice following IP administration; type: in vivo
Experimental: The formulation was prepared by dissolving solid NCL195 in DMSO (to 20% (v/v) of the final volume) before adding PEG400, yielding a clear yellow solution that was dosed to mice within 30 minutes of preparation. The measured concentration of NCL195 in the final formulation was 21.9 mg/mL, resulting in a mean administered dose of 43 mg/kg. Following administration, blood samples were collected up to 24 h post-dose (n=2 mice per time point). A maximum of two samples were obtained from each mouse, with samples being taken either via submandibular bleed (approximately 120 μL; conscious sampling) or terminal cardiac puncture (0.6 mL; while mice were anaesthetised using inhaled Isoflurane). No urine samples were collected as mice were housed in bedded cages during the study. Blood was collected directly into polypropylene Eppendorf tubes containing heparin as anticoagulant and stabilisation cocktail (containing Complete® (a protease inhibitor cocktail), potassium fluoride and EDTA) to minimise the potential for ex vivo degradation of NCL195 in blood/plasma samples. Once collected, blood samples were centrifuged immediately, supernatant plasma was removed, and stored in −20° C. until analysis by LCMS using standard methods in the art.

[8] = test system: Giardia duodenalis (strain WB trophozoites); experiment: Giardia adherence assay; type: cell-based; conditions: exposed for 5 hours
Experimental: Giardia strain WB was grown until confluent (grown and maintained in TYI-S-33 medium with 10% foetal bovine serum). For the assay, media of a confluent culture was replaced with fresh TYI-S-33 medium. Cultures were then cold shocked (on ice) for 40 minutes to detach trophozoites. The cell density of the cultures was adjusted to 1×10^6 cells/ml and 1 ml was added to each well of a 24 well plate already containing 1 ml of diluted compounds (see below). […] After incubation the coverslips were removed, air-dried and stained with Diff-Quik (a Romanowski stain variant). Coverslips were mounted onto glass slides using polymount. Images at 10× magnification were taken at 5 random locations per coverslip. […] Stock solutions of compounds were prepared in DMSO at 25.6 mg/ml. Compounds were diluted 1:100 in TYI-S-33 medium. A 1:2 serial dilution was then performed in TYI-S-33 medium in 24 well plates.

giardia = conditions: cited from earlier work
[9] = test system: Giardia duodenalis trophozoites; experiment: Resazurin reduction assay (Example 3); type: cell-based; conditions: 42 hours, then 6 hours with Alamarblue
Experimental: Giardia trophozoites were grown until confluent. The media was replaced with fresh media and they were cold shocked for 40 minutes (as above). Cells were diluted to a concentration of ˜500 000 cells/ml and 100 μl were added to each well of the assay plate (except media only control). The assay was incubated in an anaerobic environment (candle jar) for 42 hours at 37° C. […] After incubation the absorbance of each sample was read at 570 and 630 nm. The percent reduction of resazurin (Alamarblue™) was calculated and data was analysed with GraphPad Prism v6 software. Assay set-up: the assay was performed in 96 well plates in a total volume of 200 μl. 100 μl of NCL812 or NCL062 (concentration of 25.6 mg/ml in DMSO) or metronidazole (concentration 5 mg/ml in DMSO) stock was added to 9.9 ml of TYI-S-33 medium, then serially diluted 1:2 in the same medium. Cells were added as above.

| SMILES | GI50 [1] | IC50 [2] | L. donovani SI [2] | IC50 ([3]; 48 hours) | T. brucei SI [3] | Apparent t1/2 [5] | AUC0-inf [5] | Plasma CL [5] | Plasma Vss [5] | also measured |
| --- | --- | --- | --- | --- | --- | --- | --- | --- | --- | --- |
| N#Cc1cccc(C=NNC(=N)NN=Cc2cccc(C#N)c2)c1 [NCL026] | 9.6 ± 0.99 µM | 2500 ± 130 nM | 3.84 | 1700 nM | 5.71 | 1.5 h | 2.5 µM·h | 100.6 mL/min/kg | 6.9 L/kg | reduction of metabolic activity / inhibitory effect on T. brucei ([3]; 10 μM, 48 hrs): greatest inhibitory effect; IC50 ([3]; 48 hours, listed as NCL 026): 1680 ± 630 nM; IC50 [4]: 1400 nM |
| Cl.N=C(NN=Cc1ccc(SC(F)(F)F)cc1)NN=Cc1ccc(SC(F)(F)F)cc1 [NCL166] | 9.46 ± 0.05 µM | 3230 ± 1000 nM | 2.78 | – | – | – | – | – | – | – |
| CN(C)c1ccc(C=NNC(=N)NN=Cc2ccc(N(C)C)cc2O)c(O)c1 [NCL171] | 12.5 ± 3.61 µM | – | – | 1400 nM | relatively selective | – | – | – | – | IC50 ([3]; 48 hours, listed as NCL 171): 1370 ± 30 nM; T. brucei SI ([3]; listed as NCL 171): 9.14 |
| Cc1ccc(/C=N/Nc2cc(N/N=C/c3ccc(C)cc3)nc(N)n2)cc1 [NCL195, 4,6-bis(2-((E)-4-methylbenzylidene)hydrazinyl)pyrimidin-2-amine] | – | – | – | 1460 ± 760 nM | 3.79 | 2.4 h | 12.5 µM·h | 16.3 mL/min/kg | 2.6 L/kg | GI50 at 24 h [6]: 5.78 ± 0.33 µM; inhibition at 10 µM ([2]; Leishmania donovani, 10 μM, 96 hrs, read-out: reduction of metabolic activity / inhibition of L. donovani): 100%; IC50 ([3]; Trypanosoma brucei, 48 h): 1500 nM; absorption after dosing ([7]; IP, 43 mg/kg): rapidly absorbed; adverse reactions or compound-related side effects ([7]; IP, 43 mg/kg): No adverse reactions or compound-related side effects; duration of exposure at a plasma concentration >8 μg/mL ([7]; extrapolated to IP 100 mg/kg, assuming dose proportionality): at least 7.5 hours |
| Cc1ncc([N+](=O)[O-])n1CCO [metronidazole, reference compound] | – | – | – | – | – | – | – | – | – | number of adherent trophozoites [8]: significant decreases; median efficacy (giardia; giardia treatment): approximately 89%; giardia curative rate (clearance of the protozoan) (giardia; human adult and paediatric patients, 5-10 days, reported as low as): ≥ 60%; metabolic activity of the trophozoites (percentage of reduction of resazurin) [9]: reduction in the metabolic activity |
| CC(=O)Oc1ccccc1C(=O)Nc1ncc([N+](=O)[O-])s1 [nitazoxanide] | – | – | – | – | – | – | – | – | – | overall response rate (clearance of the protozoan) (giardia; giardia): 75% |
